Like-named read-outs stand apart in the source and are kept apart here.
Key:
COX2 = target: T1, COX2 (Homo sapiens, UniProt P35354); assay: Safety47 Enzymatic COX2; format: biochemical; details: Inhibitor; for Emax: read-out: Max Response; for IC50: read-out: RC50 (IC50)
T1 construct: purchased Eurofins Panlab (Safety47 Safety Scan, contract panel)
T1 sequence (P35354 18-604): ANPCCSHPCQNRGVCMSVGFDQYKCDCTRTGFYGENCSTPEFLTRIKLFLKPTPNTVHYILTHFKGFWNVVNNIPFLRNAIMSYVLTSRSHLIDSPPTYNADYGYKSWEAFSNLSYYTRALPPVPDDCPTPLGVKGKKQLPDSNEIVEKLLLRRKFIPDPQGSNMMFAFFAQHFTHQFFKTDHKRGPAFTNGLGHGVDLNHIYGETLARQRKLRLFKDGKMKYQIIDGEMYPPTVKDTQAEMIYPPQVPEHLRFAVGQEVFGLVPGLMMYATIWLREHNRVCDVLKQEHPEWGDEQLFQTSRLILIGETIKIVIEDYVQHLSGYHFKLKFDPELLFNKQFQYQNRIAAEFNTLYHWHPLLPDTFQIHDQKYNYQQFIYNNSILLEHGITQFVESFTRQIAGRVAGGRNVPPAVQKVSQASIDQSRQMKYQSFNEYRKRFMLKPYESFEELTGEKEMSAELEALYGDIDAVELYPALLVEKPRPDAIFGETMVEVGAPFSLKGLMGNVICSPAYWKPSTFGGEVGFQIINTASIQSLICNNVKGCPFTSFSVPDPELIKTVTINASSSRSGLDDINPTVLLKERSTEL

CHRM3 = target: T2, CHRM3 (Homo sapiens, UniProt P20309); assay: Safety47 Calcium Flux CHRM3; format: cell-based; details: for Emax: read-out: Max Response; for EC50: read-out: RC50 (EC50); for IC50: read-out: RC50 (IC50)
T2 construct: purchased Eurofins Panlab Safety47 Safety Scan

OPRK1 = target: T3, OPRK1 (Homo sapiens, UniProt P41145); assay: Safety47 cAMP OPRK1; format: cell-based; details: for Emax: read-out: Max Response; for EC50: read-out: RC50 (EC50); for IC50: read-out: RC50 (IC50)
T3 construct: purchased Eurofins Panlab (Safety47 Safety Scan, contract panel)
T3 sequence (P41145 whole entry, species assumed): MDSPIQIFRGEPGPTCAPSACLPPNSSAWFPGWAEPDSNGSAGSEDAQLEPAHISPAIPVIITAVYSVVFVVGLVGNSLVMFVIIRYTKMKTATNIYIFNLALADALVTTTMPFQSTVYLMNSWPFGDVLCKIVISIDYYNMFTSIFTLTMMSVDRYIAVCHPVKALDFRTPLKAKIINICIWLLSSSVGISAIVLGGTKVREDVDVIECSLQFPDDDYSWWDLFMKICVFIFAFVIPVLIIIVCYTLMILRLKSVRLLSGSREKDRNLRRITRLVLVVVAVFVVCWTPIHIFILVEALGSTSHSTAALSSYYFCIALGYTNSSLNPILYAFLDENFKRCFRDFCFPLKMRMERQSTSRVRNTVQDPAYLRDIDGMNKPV

HRH2 = target: T4, HRH2 (Homo sapiens, UniProt P25021); assay: Safety47 cAMP HRH2; format: cell-based; details: for Emax: read-out: Max Response; for EC50: read-out: RC50 (EC50); for IC50: read-out: RC50 (IC50)
T4 construct: purchased Eurofins Panlab Safety47 Safety Scan
T4 sequence (P25021 whole entry): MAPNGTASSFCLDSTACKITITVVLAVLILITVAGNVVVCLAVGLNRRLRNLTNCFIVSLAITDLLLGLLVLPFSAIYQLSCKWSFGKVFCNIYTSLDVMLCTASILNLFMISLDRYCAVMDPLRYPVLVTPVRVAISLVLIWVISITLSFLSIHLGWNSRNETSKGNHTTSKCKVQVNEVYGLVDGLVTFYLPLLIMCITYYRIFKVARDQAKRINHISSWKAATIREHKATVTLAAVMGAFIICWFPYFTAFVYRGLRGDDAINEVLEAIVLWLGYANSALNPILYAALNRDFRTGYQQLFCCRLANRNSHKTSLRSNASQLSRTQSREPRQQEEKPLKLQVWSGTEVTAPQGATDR

HTR2A = target: T5, HTR2A (Homo sapiens, UniProt P28223); assay: Safety47 Calcium Flux HTR2A; format: cell-based; details: for Emax: read-out: Max Response; for EC50: read-out: RC50 (EC50); for IC50: read-out: RC50 (IC50)
T5 construct: purchased Eurofins Panlab Safety47 Safety Scan
T5 sequence (P28223 whole entry): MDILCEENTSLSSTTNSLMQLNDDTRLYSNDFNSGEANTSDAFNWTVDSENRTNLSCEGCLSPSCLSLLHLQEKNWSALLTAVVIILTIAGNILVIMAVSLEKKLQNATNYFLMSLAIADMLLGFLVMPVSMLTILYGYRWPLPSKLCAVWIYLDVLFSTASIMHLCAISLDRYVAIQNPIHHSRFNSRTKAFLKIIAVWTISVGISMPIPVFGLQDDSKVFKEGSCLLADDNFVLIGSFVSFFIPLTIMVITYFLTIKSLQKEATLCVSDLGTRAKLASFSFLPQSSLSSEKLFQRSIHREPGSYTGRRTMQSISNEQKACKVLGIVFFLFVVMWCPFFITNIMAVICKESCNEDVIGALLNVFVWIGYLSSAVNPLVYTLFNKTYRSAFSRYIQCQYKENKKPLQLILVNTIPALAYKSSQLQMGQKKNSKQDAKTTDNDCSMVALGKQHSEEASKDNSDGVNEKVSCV

INSR = target: T6, INSR (Homo sapiens, UniProt P06213); assay: Safety47 Kinase Binding INSR; details: Kinases, Inhibitor; for Emax: read-out: Max Response; for IC50: read-out: RC50 (IC50)
T6 construct: purchased Eurofins Panlab (Safety47 Safety Scan, contract panel)
T6 sequence (P06213 28-1382, species assumed): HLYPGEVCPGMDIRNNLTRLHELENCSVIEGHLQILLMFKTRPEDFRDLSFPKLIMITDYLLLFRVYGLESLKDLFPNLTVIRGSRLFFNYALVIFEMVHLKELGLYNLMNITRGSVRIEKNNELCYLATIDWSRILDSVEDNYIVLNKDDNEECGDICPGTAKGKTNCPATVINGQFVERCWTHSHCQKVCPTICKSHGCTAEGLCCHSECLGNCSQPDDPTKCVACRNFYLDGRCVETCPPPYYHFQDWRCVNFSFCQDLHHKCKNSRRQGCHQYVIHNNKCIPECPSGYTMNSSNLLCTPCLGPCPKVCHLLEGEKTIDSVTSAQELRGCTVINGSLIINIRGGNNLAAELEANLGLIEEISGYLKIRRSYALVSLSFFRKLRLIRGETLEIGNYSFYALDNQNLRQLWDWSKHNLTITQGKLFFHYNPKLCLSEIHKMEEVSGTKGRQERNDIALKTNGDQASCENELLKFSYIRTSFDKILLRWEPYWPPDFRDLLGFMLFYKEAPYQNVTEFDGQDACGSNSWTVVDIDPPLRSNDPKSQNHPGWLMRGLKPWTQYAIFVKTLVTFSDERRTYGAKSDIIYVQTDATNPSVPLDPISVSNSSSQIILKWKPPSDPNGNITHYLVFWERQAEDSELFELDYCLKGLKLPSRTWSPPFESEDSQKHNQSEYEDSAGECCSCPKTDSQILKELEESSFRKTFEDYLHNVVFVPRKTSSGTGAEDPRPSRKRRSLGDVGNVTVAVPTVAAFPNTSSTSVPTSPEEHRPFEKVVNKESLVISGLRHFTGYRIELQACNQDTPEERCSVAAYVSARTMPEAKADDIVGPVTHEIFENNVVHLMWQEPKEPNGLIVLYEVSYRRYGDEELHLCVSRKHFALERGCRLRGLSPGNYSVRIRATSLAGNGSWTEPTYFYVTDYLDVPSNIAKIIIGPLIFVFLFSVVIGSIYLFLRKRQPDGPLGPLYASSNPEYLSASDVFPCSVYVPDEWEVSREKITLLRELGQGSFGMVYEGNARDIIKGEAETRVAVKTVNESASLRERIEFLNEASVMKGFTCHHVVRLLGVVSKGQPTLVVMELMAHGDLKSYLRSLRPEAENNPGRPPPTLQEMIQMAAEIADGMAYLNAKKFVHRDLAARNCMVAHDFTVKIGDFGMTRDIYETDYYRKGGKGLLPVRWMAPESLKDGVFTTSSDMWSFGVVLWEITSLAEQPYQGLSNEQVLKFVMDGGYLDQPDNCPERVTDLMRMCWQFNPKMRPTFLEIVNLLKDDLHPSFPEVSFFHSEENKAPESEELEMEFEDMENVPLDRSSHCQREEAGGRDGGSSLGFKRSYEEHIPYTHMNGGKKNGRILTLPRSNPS

ROCK1 = target: T7, ROCK1 (Homo sapiens, UniProt Q13464); assay: Safety47 Kinase Binding ROCK1; details: Kinases, Inhibitor; for Emax: read-out: Max Response; for IC50: read-out: RC50 (IC50)
T7 construct: purchased Eurofins Panlab (Safety47 Safety Scan, contract panel)
T7 sequence (Q13464 whole entry, species assumed): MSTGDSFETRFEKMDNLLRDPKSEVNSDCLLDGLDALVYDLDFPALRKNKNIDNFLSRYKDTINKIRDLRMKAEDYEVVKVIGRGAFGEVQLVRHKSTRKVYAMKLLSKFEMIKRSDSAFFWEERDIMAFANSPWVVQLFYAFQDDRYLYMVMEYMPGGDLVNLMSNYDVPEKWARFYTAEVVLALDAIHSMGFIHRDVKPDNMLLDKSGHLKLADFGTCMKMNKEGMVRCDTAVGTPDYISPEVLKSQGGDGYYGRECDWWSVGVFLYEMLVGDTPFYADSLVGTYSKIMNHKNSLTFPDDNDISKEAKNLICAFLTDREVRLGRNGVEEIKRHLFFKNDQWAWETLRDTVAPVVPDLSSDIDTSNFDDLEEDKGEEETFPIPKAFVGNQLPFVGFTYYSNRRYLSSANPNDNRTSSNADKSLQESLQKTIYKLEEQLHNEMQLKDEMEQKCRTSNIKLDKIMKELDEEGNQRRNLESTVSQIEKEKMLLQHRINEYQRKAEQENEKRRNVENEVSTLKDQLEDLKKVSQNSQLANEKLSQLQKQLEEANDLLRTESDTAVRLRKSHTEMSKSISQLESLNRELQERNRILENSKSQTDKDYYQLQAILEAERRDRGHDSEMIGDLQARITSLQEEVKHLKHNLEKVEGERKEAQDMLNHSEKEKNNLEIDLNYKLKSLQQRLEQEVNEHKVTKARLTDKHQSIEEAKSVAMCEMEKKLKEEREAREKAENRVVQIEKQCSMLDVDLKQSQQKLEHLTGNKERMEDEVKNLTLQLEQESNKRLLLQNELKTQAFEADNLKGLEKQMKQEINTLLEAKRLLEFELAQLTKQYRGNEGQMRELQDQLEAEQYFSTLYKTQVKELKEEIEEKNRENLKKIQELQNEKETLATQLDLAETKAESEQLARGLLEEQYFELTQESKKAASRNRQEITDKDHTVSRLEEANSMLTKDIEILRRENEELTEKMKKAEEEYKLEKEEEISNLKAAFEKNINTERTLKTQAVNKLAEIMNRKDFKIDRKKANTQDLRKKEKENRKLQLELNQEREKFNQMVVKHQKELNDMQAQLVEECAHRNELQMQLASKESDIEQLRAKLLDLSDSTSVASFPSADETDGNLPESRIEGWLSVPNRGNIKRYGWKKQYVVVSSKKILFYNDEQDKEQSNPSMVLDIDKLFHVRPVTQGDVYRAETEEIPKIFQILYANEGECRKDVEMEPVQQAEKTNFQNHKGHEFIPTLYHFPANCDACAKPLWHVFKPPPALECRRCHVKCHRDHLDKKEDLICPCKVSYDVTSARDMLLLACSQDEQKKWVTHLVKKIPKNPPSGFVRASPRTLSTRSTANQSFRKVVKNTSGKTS

HTR2B = target: T8, HTR2B (Homo sapiens, UniProt P41595); assay: Safety47 Calcium Flux HTR2B; format: cell-based; details: for Emax: read-out: Max Response; for EC50: read-out: RC50 (EC50); for IC50: read-out: RC50 (IC50)
T8 construct: purchased Eurofins Panlab Safety47 Safety Scan
T8 sequence (P41595 whole entry): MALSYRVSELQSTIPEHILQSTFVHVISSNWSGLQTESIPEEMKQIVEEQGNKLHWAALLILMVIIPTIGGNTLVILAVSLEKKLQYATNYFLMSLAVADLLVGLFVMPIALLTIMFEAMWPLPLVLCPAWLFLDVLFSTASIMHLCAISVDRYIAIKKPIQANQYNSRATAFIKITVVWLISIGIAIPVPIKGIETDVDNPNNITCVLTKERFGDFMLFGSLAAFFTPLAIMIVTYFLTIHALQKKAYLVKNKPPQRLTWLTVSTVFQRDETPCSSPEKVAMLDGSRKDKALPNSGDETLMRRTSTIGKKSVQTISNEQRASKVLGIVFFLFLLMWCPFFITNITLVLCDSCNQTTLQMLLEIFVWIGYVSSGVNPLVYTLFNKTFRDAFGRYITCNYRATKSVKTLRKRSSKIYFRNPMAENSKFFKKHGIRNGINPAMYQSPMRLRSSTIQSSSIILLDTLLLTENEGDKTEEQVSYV

TFEB = TFEB protein level / nuclear localization in BEAS-2B cells; format: cell-based, human; details: in the presence of DCAF7 (WT vs DCAF7 KO BEAS-2B), 18 hours
NAV1.5 = target: T9, NAV1.5 (Homo sapiens, UniProt Q14524); assay: Safety47 Ion Channel NAV1.5; format: cell-based; details: Blocker; for Emax: read-out: Max Response; for IC50: read-out: RC50 (IC50)
T9 construct: purchased Eurofins Panlab (Safety47 Safety Scan, contract panel)

ADRB2 = target: T10, ADRB2 (Homo sapiens, UniProt P07550); assay: Safety47 cAMP ADRB2; format: cell-based; details: for Emax: read-out: Max Response; for EC50: read-out: RC50 (EC50); for IC50: read-out: RC50 (IC50)
T10 construct: purchased Eurofins Panlab Safety47 Safety Scan
T10 sequence (P07550 whole entry): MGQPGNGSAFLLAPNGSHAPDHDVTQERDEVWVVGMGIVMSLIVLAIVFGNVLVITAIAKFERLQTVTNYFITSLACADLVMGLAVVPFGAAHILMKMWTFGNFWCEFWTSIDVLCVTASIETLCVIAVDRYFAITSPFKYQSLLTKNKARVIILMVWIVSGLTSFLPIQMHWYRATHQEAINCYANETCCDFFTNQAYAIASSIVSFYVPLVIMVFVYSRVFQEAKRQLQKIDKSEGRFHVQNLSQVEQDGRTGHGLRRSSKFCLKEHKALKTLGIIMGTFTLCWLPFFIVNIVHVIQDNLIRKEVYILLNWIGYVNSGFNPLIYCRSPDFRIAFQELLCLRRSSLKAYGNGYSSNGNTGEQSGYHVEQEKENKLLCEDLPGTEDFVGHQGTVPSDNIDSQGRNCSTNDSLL

CHRM2 = target: T11, CHRM2 (Homo sapiens, UniProt P08172); assay: Safety47 cAMP CHRM2; format: cell-based; details: for Emax: read-out: Max Response; for EC50: read-out: RC50 (EC50); for IC50: read-out: RC50 (IC50)
T11 construct: purchased Eurofins Panlab Safety47 Safety Scan
T11 sequence (P08172 1-466): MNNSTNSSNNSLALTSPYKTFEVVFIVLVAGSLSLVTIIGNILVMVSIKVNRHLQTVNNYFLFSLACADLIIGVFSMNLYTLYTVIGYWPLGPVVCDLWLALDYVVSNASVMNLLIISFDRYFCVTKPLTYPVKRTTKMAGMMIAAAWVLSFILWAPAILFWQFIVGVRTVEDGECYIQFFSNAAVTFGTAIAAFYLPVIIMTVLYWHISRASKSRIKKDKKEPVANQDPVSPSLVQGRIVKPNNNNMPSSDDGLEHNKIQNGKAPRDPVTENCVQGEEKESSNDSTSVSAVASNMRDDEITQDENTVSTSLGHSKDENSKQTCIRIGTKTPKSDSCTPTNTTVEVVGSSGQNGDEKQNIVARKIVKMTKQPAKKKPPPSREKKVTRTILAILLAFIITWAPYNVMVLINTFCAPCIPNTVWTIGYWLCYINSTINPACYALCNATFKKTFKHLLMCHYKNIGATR

VEGFR2 = target: T12, VEGFR2 (Homo sapiens, UniProt P35968); assay: Safety47 Kinase Binding VEGFR2; details: Kinases, Inhibitor; for Emax: read-out: Max Response; for IC50: read-out: RC50 (IC50)
T12 construct: purchased Eurofins Panlab (Safety47 Safety Scan, contract panel)

ADRA1A = target: T13, ADRA1A (Homo sapiens, UniProt P35348); assay: Safety47 Calcium Flux ADRA1A; format: cell-based; details: for Emax: read-out: Max Response; for EC50: read-out: RC50 (EC50); for IC50: read-out: RC50 (IC50)
T13 construct: purchased Eurofins Panlab Safety47 Safety Scan
T13 sequence (P35348 1-466): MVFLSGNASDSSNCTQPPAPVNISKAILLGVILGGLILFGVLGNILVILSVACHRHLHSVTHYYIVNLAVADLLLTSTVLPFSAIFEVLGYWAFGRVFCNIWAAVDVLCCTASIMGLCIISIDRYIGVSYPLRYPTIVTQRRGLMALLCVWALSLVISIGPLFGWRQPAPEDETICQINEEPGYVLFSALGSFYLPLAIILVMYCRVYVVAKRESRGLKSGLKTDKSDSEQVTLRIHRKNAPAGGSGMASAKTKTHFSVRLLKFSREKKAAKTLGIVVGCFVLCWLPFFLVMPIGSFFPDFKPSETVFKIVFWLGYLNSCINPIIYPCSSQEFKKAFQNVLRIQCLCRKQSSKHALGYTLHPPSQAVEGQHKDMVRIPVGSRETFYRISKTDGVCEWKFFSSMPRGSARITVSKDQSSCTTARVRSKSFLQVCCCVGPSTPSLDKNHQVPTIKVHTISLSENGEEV

Cl.Fc1cc(Nc2nc(-c3ccncc3)nc3ncccc23)cc2cc[nH]c12 [BC18813, N-(7-fluoro-1H-indol-5-yl)-2-pyridin-4-ylpyrido[2,3-d]pyrimidin-4-amine hydrochloride]
Emax (COX2): 17.9% | IC50 (COX2): > 10 µM | Emax (CHRM3; Agonist): 0.56% | EC50 (CHRM3; Agonist): > 10 µM | Emax (CHRM3; Antagonist): 16.6% | IC50 (CHRM3; Antagonist): > 10 µM | Emax (OPRK1; Agonist): 24.3% | EC50 (OPRK1; Agonist): > 10 µM | Emax (OPRK1; Antagonist): 0% | IC50 (OPRK1; Antagonist): > 10 µM | Emax (HRH2; Agonist): 0% | EC50 (HRH2; Agonist): > 10 µM | Emax (HRH2; Antagonist): 45.8% | IC50 (HRH2; Antagonist): > 10 µM | Emax (HTR2A; Agonist): 0.95% | EC50 (HTR2A; Agonist): > 10 µM | Emax (HTR2A; Antagonist): 25.6% | IC50 (HTR2A; Antagonist): > 10 µM | Emax (INSR): 0% | IC50 (INSR): > 10 µM | Emax (ROCK1): 22.8% | IC50 (ROCK1): > 10 µM | Emax (HTR2B; Agonist): 2.91% | EC50 (HTR2B; Agonist): > 10 µM | Emax (HTR2B; Antagonist): 31.3% | IC50 (HTR2B; Antagonist): > 10 µM | TFEB protein level (TFEB): increased | Emax (NAV1.5): 8.29% | IC50 (NAV1.5): > 10 µM | Emax (ADRB2; Agonist): 0% | EC50 (ADRB2; Agonist): > 10 µM | Emax (ADRB2; Antagonist): 41.9% | IC50 (ADRB2; Antagonist): > 10 µM | Emax (CHRM2; Agonist): 47.7% | EC50 (CHRM2; Agonist): > 10 µM | Emax (CHRM2; Antagonist): 12.2% | IC50 (CHRM2; Antagonist): > 10 µM | Emax (VEGFR2): 0.27% | IC50 (VEGFR2): > 10 µM | Emax (ADRA1A; Agonist): 5.5% | EC50 (ADRA1A; Agonist): > 10 µM | Emax (ADRA1A; Antagonist): 1.12% | IC50 (ADRA1A; Antagonist): > 10 µM

Cl.c1ccc2c(Nc3ccc4[nH]ccc4c3)nc(-c3ccncc3)nc2c1 [BC18630, N-1H-indol-5-yl-2-pyridin-4-ylquinazolin-4-amine hydrochloride]
Emax (COX2): 8.53% | IC50 (COX2): > 10 µM | Emax (CHRM3; Agonist): 0% | EC50 (CHRM3; Agonist): > 10 µM | Emax (CHRM3; Antagonist): 13.7% | IC50 (CHRM3; Antagonist): > 10 µM | Emax (OPRK1; Agonist): 8.98% | EC50 (OPRK1; Agonist): > 10 µM | Emax (OPRK1; Antagonist): 1% | IC50 (OPRK1; Antagonist): > 10 µM | Emax (HRH2; Agonist): 0% | EC50 (HRH2; Agonist): > 10 µM | Curve Bottom (HRH2; Antagonist): -8.58 | Curve Top (HRH2; Antagonist): 73.68 | Hill (HRH2; Antagonist): 1 | Emax (HRH2; Antagonist): 43.2% | IC50 (HRH2; Antagonist): 6.01 µM | Emax (HTR2A; Agonist): 4.44% | EC50 (HTR2A; Agonist): > 10 µM | Emax (HTR2A; Antagonist): 22.5% | IC50 (HTR2A; Antagonist): > 10 µM | Emax (INSR): 15.6% | IC50 (INSR): > 10 µM | Emax (ROCK1): 20.8% | IC50 (ROCK1): > 10 µM | Emax (HTR2B; Agonist): 5.41% | EC50 (HTR2B; Agonist): > 10 µM | Emax (HTR2B; Antagonist): 9.48% | IC50 (HTR2B; Antagonist): > 10 µM | TFEB protein level (TFEB): increased | Emax (NAV1.5): 30% | IC50 (NAV1.5): > 10 µM | Emax (ADRB2; Agonist): 0% | EC50 (ADRB2; Agonist): > 10 µM | Emax (ADRB2; Antagonist): 37.3% | IC50 (ADRB2; Antagonist): > 10 µM | Emax (CHRM2; Agonist): 31.6% | EC50 (CHRM2; Agonist): > 10 µM | Emax (CHRM2; Antagonist): 0.25% | IC50 (CHRM2; Antagonist): > 10 µM | Emax (VEGFR2): 13.7% | IC50 (VEGFR2): > 10 µM | Emax (ADRA1A; Agonist): 0% | EC50 (ADRA1A; Agonist): > 10 µM | Emax (ADRA1A; Antagonist): 0% | IC50 (ADRA1A; Antagonist): > 10 µM

Source: paper PMC12136031 (Science Advances, 2025)
